In patent publication US20130287890A1, “INHIBITOR OF THE PRODUCTION OF ADVANCED GLYCATION END PRODUCTS” (UENO FINE CHEMICALS INDUSTRY, LTD., priority 2012, published 2013):

Tests used:
3-DG = assay: Quantitative determination of 3-DG (HPLC) after reaction of amino acid or biological protein with carbohydrates at 37° C. for 42 days; type: biochemical; conditions: for 3-DG: 37° C., 42 days
Procedure: (§1) Amino acid or biological protein, carbohydrates and a phosphate buffer solution were charged in a 50 mL polypropylene centrifuge tube in each amount shown in Table 8, followed by sealing and stirring, and then the mixture was reacted in an incubator at 37° C. for 42 days. Next, the reactant was fractionated by centrifugation at 3,000 rpm for 3 hours using an ultrafiltration unit (VIVA SPIN 20, manufactured by Sartorius Corporation). The obtained low molecular weight fraction was used as a sample for determination of 3-DG, while the obtained high molecular weight fraction was used as a sample for the determination of fluorescent AGEs. Amino acid, biological protein and carbohydrates used are as follows:
In the same manner as in Test Example 1, except that the low molecular weight fraction prepared as mentioned above was used as a sample, quantitative determination of 3-DG was performed. In the same manner as in Test Example 2, except that the high molecular weight fraction prepared as mentioned above was used as a sample, determination of fluorescent AGEs was performed.
(§2) Amino acid, carbohydrates and a phosphate buffer solution were charged in a 50 mL polypropylene centrifuge tube in each amount shown in Table 10, followed by sealing and stirring, and then the mixture was reacted in an incubator at 37° C. for 42 days. Next, the reactant was filtered through a 0.2 μm filter and the obtained filtrate was used as a sample. Amino acid and carbohydrates used are as follows:
To 2 mL of a sample, the same amount of a 60% perchloric acid solution was added to deproteinize the sample. The sample was neutralized with 4 mL of an aqueous saturated sodium hydrogen carbonate solution and 0.8 mL of a 0.1% methanol solution of 2,3-diaminonaphthalene was added, and then the mixture was reacted at 4° C. for 16 hours. Next, the reactant was extracted with 4.4 mL of ethyl acetate, concentrated to dryness using an evaporator, dissolved in 5 mL of methanol, and then filtered through a 0.45 μm filter. The filtrate was subjected to high-performance liquid chromatography and 3-DG was quantitatively determined under the following measurement conditions.
Injection amount: 20 μL Column: TSK-GEL, ODS-80Ts (4.6×150 mm, manufactured by TOSOH CORPORATION) Column temperature: 30° C. Mobile phase: 50 mM phosphoric acid:methanol:acetonitrile=7:1.5:1.5 Flow rate: 1 mL/min.
as §1, with “Biological proteins,” for “Amino acid or biological protein,”, “are” for “were”, “12,” for “8,”, “AGEs, pentosidine, CML, RAGE agonist activity and RAGE antagonist activity. Biological proteins” for “AGEs. Amino acid, biological protein”
(§3) In the same manner as in Test Example 4, except that the low molecular weight fraction prepared as mentioned above was used as a sample, quantitative determination of 3-DG was performed. In the same manner as in Test Example 4, except that the high molecular weight fraction was filtered through a 0.2 μm filter and the filtrate was used as a sample, fluorescent AGEs, pentosidine, CML, RAGE agonist activity and RAGE antagonist activity were evaluated.
Collagen, carbohydrates and a phosphate buffer solution were charged in a 50 mL polypropylene centrifuge tube in each amount shown in Table 14, followed by sealing and stirring, and then the mixture was reacted in an incubator at 37° C. for 42 days. Next, the reactant was fractionated by centrifugation at 3,000 rpm for 3 hours using an ultrafiltration unit (VIVA SPIN 20, manufactured by Sartorius Corporation). […]

human RAGE = target: T1, human RAGE (Homo sapiens, UniProt Q15109); assay: RAGE agonist activity of reaction samples (37° C., 42 days), NF-κB luciferase assay in C6 glioma cells; type: cell-based, rat
T1 construct: human RAGE plasmid (including full-length human RAGE cDNA); expressed in transfected cells; host or cells: C6 glioma cells carrying pNF-κB-Luc plasmid and human RAGE plasmid
T1 sequence (Q15109 23-404): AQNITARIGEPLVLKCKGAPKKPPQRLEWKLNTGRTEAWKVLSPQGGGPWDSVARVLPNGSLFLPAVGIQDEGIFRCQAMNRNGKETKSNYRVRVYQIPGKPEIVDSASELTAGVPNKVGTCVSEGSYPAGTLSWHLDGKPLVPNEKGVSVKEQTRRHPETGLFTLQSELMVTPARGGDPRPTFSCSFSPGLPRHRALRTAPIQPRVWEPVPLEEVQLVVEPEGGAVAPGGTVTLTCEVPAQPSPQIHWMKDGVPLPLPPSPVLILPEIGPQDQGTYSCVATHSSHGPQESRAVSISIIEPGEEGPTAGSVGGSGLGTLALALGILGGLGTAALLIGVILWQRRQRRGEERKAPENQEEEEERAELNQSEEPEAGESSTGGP
Procedure: as §2
Using Luciferase Assay System (manufactured by Promega Corporation), evaluation of RAGE agonist activity was performed. (Day 1) According to the methods disclosed in Diabetes, 2006, vol. 55, pp. 2510-2522, C6 glioma cells into which pNF-κB-Luc plasmid (manufactured by Stratagene Corporation) and human RAGE plasmid (including full-length human RAGE cDNA) have been introduced were seeded at 100 μL/well into a 96-well plate and cultured in a CO2 incubator until the cells were confluent. For the culture, 10% FBS/DMEM medium was used. (Day 2) The medium was removed, and after wells were washed with 300 μL of serum-free DMEM medium, 100 μL of 0.1% FBS/DMEM medium was slowly added. Then, the medium was incubated overnight in a CO2 incubator. (Day 3) The sample was diluted using the medium, and 50 μL of the diluted sample was added to each well. AGE-BSA in which AGE was formed with glyceraldehydes (50 μg/mL) was added to a control well. After incubation in a CO2 incubator for 4 hours, the medium was removed and wells were washed 2 times with 300 μL of PBS (−). Then, 25 μL of 1× lysis buffer was added on ice. After the plate was shaken for 15 seconds, 20 μL of lysate was charged in a new white plate. Further 100 μL of a luciferase assay reagent was added, and a […] was measured by a luminometer. Using 5 μl of lysate, quantitative determination of protein was also performed.
as §1, with “Biological proteins,” for “Amino acid or biological protein,”, “are” for “were”, “12,” for “8,”, “AGEs, pentosidine, CML, RAGE agonist activity and RAGE antagonist activity. Biological proteins” for “AGEs. Amino acid, biological protein”
as §3
Collagen, carbohydrates and a phosphate buffer solution were charged in a 50 mL polypropylene centrifuge tube in each amount shown in Table 14, followed by sealing and stirring, and then the mixture was reacted in an incubator at 37° C. for 42 days. Next, the reactant was fractionated by centrifugation at 3,000 rpm for 3 hours using an ultrafiltration unit (VIVA SPIN 20, manufactured by Sartorius Corporation). The obtained low molecular weight fraction was used as a sample for determination of 3-DG. Meanwhile, 0.4 g of a high molecular weight fraction and 8 mL of 6N hydrochloric acid were charged in an ampule and the air in the ampule was replaced with nitrogen, and then hydrolysis was performed at 110° C. for 16 hours in a heat block. After reaction, 8 mL of 5N sodium hydroxide was added, and pH was adjusted using 1N hydrochloric acid and 1N sodium hydroxide to make pH within a range of 7.2 to 7.6. Then, the solution was filtered through a 0.2 μm filter. […]

[1] = Test Example 4, amino acid 0.4 g + carbohydrate 1.8 g
[2] = Test Example 5, bovine serum albumin 0.4 g + carbohydrate 1.8 g
[3] = Test Example 5, human serum albumin 0.4 g + carbohydrate 1.8 g
[4] = Test Example 5, γ-globulin 0.4 g + carbohydrate 1.8 g
[5] = Test Example 6, collagen 0.015 g + carbohydrate 1.8 g
[6] = Test Example 4, amino acid + carbohydrate, amount of protein 100 μg/mL, relative to control (AGE-BSA) = 1
[7] = Test Example 5, bovine serum albumin + carbohydrate, protein 100 μg/mL, relative to control (AGE-BSA) = 1
[8] = Test Example 5, human serum albumin + carbohydrate, protein 100 μg/mL, relative to control (AGE-BSA) = 1
[9] = Test Example 5, γ-globulin + carbohydrate, protein 10 μg/mL, relative to control (AGE-BSA) = 1
[10] = Test Example 6, collagen + carbohydrate, protein 10 μg/mL, relative to control (AGE-BSA) = 1
[11] = Test Example 3, amino acid (lysine:arginine 1:1) 0.4 g + glucose 1.8 g or maltitol 3.4 g
[12] = Test Example 3, bovine serum albumin 0.4 g + glucose 1.8 g or maltitol 3.4 g
[13] = Test Example 5, bovine serum albumin, human serum albumin, γ-globulin, compared with sections containing fructose
[14] = Test Example 5, bovine serum albumin, human serum albumin, γ-globulin, compared with sections containing glucose
[15] = Test Example 6, collagen, compared with sections containing glucose and fructose

RAGE agonist activity (human RAGE; [6])	RAGE agonist activity (human RAGE; [7])	RAGE agonist activity (human RAGE; [8])	RAGE agonist activity (human RAGE; [9])	RAGE agonist activity (human RAGE; [10])	Compound	3-DG (3-DG; [1])	3-DG (3-DG; [2])	3-DG (3-DG; [3])	3-DG (3-DG; [4])	3-DG (3-DG; [5])	3-DG (3-DG; [11])	3-DG (3-DG; [12])	further results
0.06	0.37	0.01	0.06	0.45	O=C[C@H](O)[C@@H](O)[C@H](O)[C@H](O)CO [Glucose]	8310 nmol/1 mL of reaction solution	10253 nmol/1 mL of reaction solution	2575 nmol/1 mL of reaction solution	877 nmol/1 mL of reaction solution	232 nmol/1 mL of reaction solution	22,761 nmol/1 g of protein	29,938 nmol/1 g of protein	–
–	–	–	–	–	OC[C@@H](O)[C@@H](O[C@H]1O[C@H](CO)[C@@H](O)[C@H](O)[C@H]1O)[C@H](O)[C@@H](O)CO [Maltitol]	–	–	–	–	–	127 nmol/1 g of protein	1,181 nmol/1 g of protein	production of 3-DG (3-DG; Test Example 3, amino acids and bovine serum albumin, compared with sections containing glucose): significantly decreased
0.07	0.24	0.02	0.06	0.27	OC[C@@H](O)[C@@H](O)[C@H](O)[C@@H](O)CO [Sorbitol]	13 nmol/1 mL of reaction solution	33 nmol/1 mL of reaction solution	78 nmol/1 mL of reaction solution	21 nmol/1 mL of reaction solution	24 nmol/1 mL of reaction solution	–	–	production of 3-DG (3-DG; Test Example 4, amino acid, compared with sections containing glucose and fructose): significantly decreased; production of 3-DG (3-DG; [13]): significantly decreased; production of 3-DG (3-DG; [14]): decreased; production of 3-DG (3-DG; [15]): significantly decreased; RAGE agonist activity (human RAGE; Test Example 4, amino acid, compared with the test section 2 containing fructose): decreased; RAGE agonist activity (human RAGE; [13]): decreased; RAGE agonist activity (human RAGE; [14]): decreased; RAGE agonist activity (human RAGE; [15]): decreased

Compound	RAGE agonist activity (human RAGE; [6])	RAGE agonist activity (human RAGE; [7])	RAGE agonist activity (human RAGE; [8])	RAGE agonist activity (human RAGE; [9])	RAGE agonist activity (human RAGE; [10])	3-DG (3-DG; [1])	3-DG (3-DG; [2])	3-DG (3-DG; [3])	3-DG (3-DG; [4])	3-DG (3-DG; [5])	3-DG (3-DG; [11])	3-DG (3-DG; [12])	further results
O=C(CO)[C@@H](O)[C@H](O)[C@H](O)CO [Fructose]	0.08	0.33	0.02	0.04	0.58	904 nmol/1 mL of reaction solution	5316 nmol/1 mL of reaction solution	2358 nmol/1 mL of reaction solution	877 nmol/1 mL of reaction solution	1447 nmol/1 mL of reaction solution	–	–	–
